Experimental data reported in the supplement of paper PMC11451515.

Tested on: NOMO1
Assay: cell viability relative to DMSO control; higher = less cytotoxic
Details: 48 h
Outline: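 Viability is expressed as a percentage of DMSO wells within each plate, and cell-free wells serve as background. Seeding densities in the 1536-well plates (5 μl) were 500 cells/well for NOMO1 or SEM leukemia cells and 1000 cells/well for P12-Ichikawa. Each line was adapted for at least four passages in each medium. Library compounds in DMSO were pin-dosed at 47 μM to 0.79 nM (11 points, threefold), and CellTiter-Glo One luminescence was read after 48 h at 37°C.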

[1] = HPLM + 10% dialyzed FBS, 0.000781 µM
[2] = HPLM + 10% dialyzed FBS, 0.00234 µM
[3] = HPLM + 10% dialyzed FBS, 0.00702 µM
[4] = HPLM + 10% dialyzed FBS, 0.0211 µM
[5] = HPLM + 10% dialyzed FBS, 0.0632 µM
[6] = HPLM + 10% dialyzed FBS, 0.19 µM
[7] = HPLM + 10% dialyzed FBS, 0.569 µM
[8] = HPLM + 10% dialyzed FBS, 1.71 µM
[9] = HPLM + 10% dialyzed FBS, 5.12 µM
[10] = HPLM + 10% dialyzed FBS, 15.4 µM
[11] = HPLM + 10% dialyzed FBS, 46.1 µM
[12] = RPMI 5 mM glucose + 10% FBS, 0.000781 µM
[13] = RPMI 5 mM glucose + 10% FBS, 0.00234 µM
[14] = RPMI 5 mM glucose + 10% FBS, 0.00702 µM
[15] = RPMI 5 mM glucose + 10% FBS, 0.0211 µM
[16] = RPMI 5 mM glucose + 10% FBS, 0.0632 µM
[17] = RPMI 5 mM glucose + 10% FBS, 0.19 µM
[18] = RPMI 5 mM glucose + 10% FBS, 0.569 µM
[19] = RPMI 5 mM glucose + 10% FBS, 1.71 µM
[20] = RPMI 5 mM glucose + 10% FBS, 5.12 µM
[21] = RPMI 5 mM glucose + 10% FBS, 15.4 µM
[22] = RPMI 5 mM glucose + 10% FBS, 46.1 µM
[23] = RPMI 5 mM glucose + 10% dialyzed FBS, 0.000781 µM
[24] = RPMI 5 mM glucose + 10% dialyzed FBS, 0.00234 µM
[25] = RPMI 5 mM glucose + 10% dialyzed FBS, 0.00702 µM
[26] = RPMI 5 mM glucose + 10% dialyzed FBS, 0.0211 µM
[27] = RPMI 5 mM glucose + 10% dialyzed FBS, 0.0632 µM
[28] = RPMI 5 mM glucose + 10% dialyzed FBS, 0.19 µM
[29] = RPMI 5 mM glucose + 10% dialyzed FBS, 0.569 µM
[30] = RPMI 5 mM glucose + 10% dialyzed FBS, 1.71 µM
[31] = RPMI 5 mM glucose + 10% dialyzed FBS, 5.12 µM
[32] = RPMI 5 mM glucose + 10% dialyzed FBS, 15.4 µM
[33] = RPMI 5 mM glucose + 10% dialyzed FBS, 46.1 µM

## CCNC(=O)CCC/C=C\C[C@@H]1[C@@H](/C=C/C(O)CCc2ccccc2)[C@@H](O)C[C@@H]1O (stereo partly drawn)
[1]
  cell viability: 104%
[2]
  cell viability: 108%
[3]
  cell viability: 106%
[4]
  cell viability: 131%
[5]
  cell viability: 112%
[6]
  cell viability: 130%
[7]
  cell viability: 103%
[8]
  cell viability: 116%
[9]
  cell viability: 105%
[10]
  cell viability: 110%
[11]
  cell viability: 39.5%
[12]
  cell viability: 116%
[13]
  cell viability: 118%
[14]
  cell viability: 124%
[15]
  cell viability: 106%
[16]
  cell viability: 108%
[17]
  cell viability: 105%
[18]
  cell viability: 113%
[19]
  cell viability: 120%
[20]
  cell viability: 118%
[21]
  cell viability: 102%
[22]
  cell viability: 38%
[23]
  cell viability: 113%
[24]
  cell viability: 121%
[25]
  cell viability: 106%
[26]
  cell viability: 116%
[27]
  cell viability: 114%
[28]
  cell viability: 105%
[29]
  cell viability: 120%
[30]
  cell viability: 105%
[31]
  cell viability: 118%
[32]
  cell viability: 111%
[33]
  cell viability: 32.3%

## Nc1ccc(C(=O)c2cc3c(ccc4ccccc43)[nH]2)cc1
[1]
  cell viability: 120%
[2]
  cell viability: 121%
[3]
  cell viability: 123%
[4]
  cell viability: 129%
[5]
  cell viability: 113%
[6]
  cell viability: 112%
[7]
  cell viability: 117%
[8]
  cell viability: 110%
[9]
  cell viability: 89.5%
[10]
  cell viability: 40.5%
[11]
  cell viability: 26.6%
[12]
  cell viability: 118%
[13]
  cell viability: 112%
[14]
  cell viability: 110%
[15]
  cell viability: 117%
[16]
  cell viability: 121%
[17]
  cell viability: 116%
[18]
  cell viability: 101%
[19]
  cell viability: 109%
[20]
  cell viability: 99.2%
[21]
  cell viability: 56.4%
[22]
  cell viability: 18.9%

## COc1ccc(F)c(F)c1C(=O)c1cnc(NC2CCN([S+](C)(=O)[O-])CC2)nc1N
[1]
  cell viability: 106%
[2]
  cell viability: 135%
[3]
  cell viability: 123%
[4]
  cell viability: 117%
[5]
  cell viability: 119%
[6]
  cell viability: 124%
[7]
  cell viability: 118%
[8]
  cell viability: 93.6%
[9]
  cell viability: 45.6%
[10]
  cell viability: 7.59%
[11]
  cell viability: 3.32%
[12]
  cell viability: 104%
[13]
  cell viability: 118%
[14]
  cell viability: 103%
[15]
  cell viability: 102%
[16]
  cell viability: 109%
[17]
  cell viability: 109%
[18]
  cell viability: 100%
[19]
  cell viability: 98.9%
[20]
  cell viability: 46.3%
[21]
  cell viability: 15.1%
[22]
  cell viability: 3.38%
[23]
  cell viability: 105%
[24]
  cell viability: 101%
[25]
  cell viability: 102%
[26]
  cell viability: 106%
[27]
  cell viability: 107%
[28]
  cell viability: 102%
[29]
  cell viability: 83.8%
[30]
  cell viability: 90%
[31]
  cell viability: 54.1%
[32]
  cell viability: 15%
[33]
  cell viability: 2.57%

## C[C@@H]1CC[C@@]2(CC[C@]3(C)\C(=C/C[C@@H]4[C@@]5(C)CC[C@H](O)C(C)(C)[C@@H]5CC[C@@]34C)[C@@H]2[C@H]1C)C(O)=O
[1]
  cell viability: 111%
[2]
  cell viability: 120%
[3]
  cell viability: 116%
[4]
  cell viability: 113%
[5]
  cell viability: 111%
[6]
  cell viability: 127%
[7]
  cell viability: 130%
[8]
  cell viability: 113%
[9]
  cell viability: 113%
[10]
  cell viability: 111%
[11]
  cell viability: 119%
[12]
  cell viability: 113%
[13]
  cell viability: 108%
[14]
  cell viability: 120%
[15]
  cell viability: 106%
[16]
  cell viability: 112%
[17]
  cell viability: 108%
[18]
  cell viability: 98.7%
[19]
  cell viability: 104%
[20]
  cell viability: 102%
[21]
  cell viability: 112%
[22]
  cell viability: 106%
[23]
  cell viability: 104%
[24]
  cell viability: 120%
[25]
  cell viability: 117%
[26]
  cell viability: 125%
[27]
  cell viability: 124%
[28]
  cell viability: 113%
[29]
  cell viability: 121%
[30]
  cell viability: 112%
[31]
  cell viability: 114%
[32]
  cell viability: 106%
[33]
  cell viability: 114%

## Nc1n[nH]c2nnc(-c3c(-c4ccccc4)nn4ccccc34)cc12
[1]
  cell viability: 103%
[2]
  cell viability: 139%
[3]
  cell viability: 118%
[4]
  cell viability: 131%
[5]
  cell viability: 134%
[6]
  cell viability: 137%
[7]
  cell viability: 137%
[8]
  cell viability: 86.3%
[9]
  cell viability: 40.5%
[10]
  cell viability: 37.4%
[11]
  cell viability: 37.3%
[12]
  cell viability: 116%
[13]
  cell viability: 114%
[14]
  cell viability: 144%
[15]
  cell viability: 124%
[16]
  cell viability: 138%
[17]
  cell viability: 123%
[18]
  cell viability: 133%
[19]
  cell viability: 59%
[20]
  cell viability: 24%
[21]
  cell viability: 26.9%
[22]
  cell viability: 20.8%
[23]
  cell viability: 116%
[24]
  cell viability: 123%
[25]
  cell viability: 134%
[26]
  cell viability: 129%
[27]
  cell viability: 136%
[28]
  cell viability: 129%
[29]
  cell viability: 138%
[30]
  cell viability: 119%
[31]
  cell viability: 29.1%
[32]
  cell viability: 28%
[33]
  cell viability: 21.4%

## Cc1cc(Nc2ncc3c(n2)N(C)C(=O)N(c2cc(NC(=O)c4cccc(C(F)(F)F)c4)ccc2C)C3)n(C)n1
[1]
  cell viability: 90.6%
[2]
  cell viability: 134%
[3]
  cell viability: 123%
[4]
  cell viability: 116%
[5]
  cell viability: 134%
[6]
  cell viability: 111%
[7]
  cell viability: 90.5%
[8]
  cell viability: 56.7%
[9]
  cell viability: 32.2%
[10]
  cell viability: 25.9%
[11]
  cell viability: 7.8%
[12]
  cell viability: 99.6%
[13]
  cell viability: 111%
[14]
  cell viability: 132%
[15]
  cell viability: 156%
[16]
  cell viability: 132%
[17]
  cell viability: 130%
[18]
  cell viability: 146%
[19]
  cell viability: 70.6%
[20]
  cell viability: 43.8%
[21]
  cell viability: 29.6%
[22]
  cell viability: 10.7%
[23]
  cell viability: 113%
[24]
  cell viability: 115%
[25]
  cell viability: 123%
[26]
  cell viability: 134%
[27]
  cell viability: 134%
[28]
  cell viability: 132%
[29]
  cell viability: 115%
[30]
  cell viability: 60.2%
[31]
  cell viability: 38.7%
[32]
  cell viability: 32.7%
[33]
  cell viability: 17.7%

## CCn1nnc2c(N3CCOCC3)nc(-c3ccc(NC(=O)Nc4ccc(C(=O)N5CCN(C)CC5)cc4)cc3)nc21
[1]
  cell viability: 117%
[2]
  cell viability: 109%
[3]
  cell viability: 94.2%
[4]
  cell viability: 67.2%
[5]
  cell viability: 63.4%
[6]
  cell viability: 53.9%
[7]
  cell viability: 101%
[8]
  cell viability: 65.7%
[9]
  cell viability: 60.7%
[10]
  cell viability: 51.4%
[11]
  cell viability: 48%
[12]
  cell viability: 90.8%
[13]
  cell viability: 107%
[14]
  cell viability: 94.1%
[15]
  cell viability: 85.6%
[16]
  cell viability: 76.5%
[17]
  cell viability: 67.7%
[18]
  cell viability: 105%
[19]
  cell viability: 79.9%
[20]
  cell viability: 72.4%
[21]
  cell viability: 69.9%
[22]
  cell viability: 61.2%
[23]
  cell viability: 89.3%
[24]
  cell viability: 97.2%
[25]
  cell viability: 89.7%
[26]
  cell viability: 75.3%
[27]
  cell viability: 60.9%
[28]
  cell viability: 60.2%
[29]
  cell viability: 89.8%
[30]
  cell viability: 62.5%
[31]
  cell viability: 53.5%
[32]
  cell viability: 55.9%
[33]
  cell viability: 56%

## OC[C@H]1O[C@H](C[C@@H]1O)N2/C=C(C(=O)NC2=O)/C(F)(F)F
[1]
  cell viability: 128%
[2]
  cell viability: 120%
[3]
  cell viability: 106%
[4]
  cell viability: 116%
[5]
  cell viability: 120%
[6]
  cell viability: 114%
[7]
  cell viability: 82.8%
[8]
  cell viability: 58.8%
[9]
  cell viability: 69.7%
[10]
  cell viability: 45%
[11]
  cell viability: 26.5%
[12]
  cell viability: 99.8%
[13]
  cell viability: 117%
[14]
  cell viability: 116%
[15]
  cell viability: 116%
[16]
  cell viability: 114%
[17]
  cell viability: 107%
[18]
  cell viability: 118%
[19]
  cell viability: 115%
[20]
  cell viability: 107%
[21]
  cell viability: 86.9%
[22]
  cell viability: 42.9%
[23]
  cell viability: 115%
[24]
  cell viability: 110%
[25]
  cell viability: 121%
[26]
  cell viability: 113%
[27]
  cell viability: 103%
[28]
  cell viability: 113%
[29]
  cell viability: 97.4%
[30]
  cell viability: 96%
[31]
  cell viability: 67.7%
[32]
  cell viability: 31.3%
[33]
  cell viability: 18.3%
